What follows are molecules tested against T1, human IDO1 (Homo sapiens, UniProt P14902) (assay: IDO inhibition assay in HEK293 cells stably expressing human IDO1 (kynurenine production, Ehrlich reagent, absorbance 490 nm)). Conditions: 20 hours incubation with compound, 500 nM reference standard = 100% inhibition, read-out: IDO1 HEK Human IC50.
T1 construct: expressed in transfected cells
Format: cell-based
Summary of the method: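 Kynurenine output of stably IDO1-transfected HEK293 cells was measured by absorbance at 490 nm after mixing supernatant with 0.2% Ehrlich reagent, following TCA stop (0.2% final, 50° C., 30 min). Cells were incubated 20 hours with compound. Inhibition was scaled between DMSO and 500 nM reference standard.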

T1 sequence (P14902 whole entry): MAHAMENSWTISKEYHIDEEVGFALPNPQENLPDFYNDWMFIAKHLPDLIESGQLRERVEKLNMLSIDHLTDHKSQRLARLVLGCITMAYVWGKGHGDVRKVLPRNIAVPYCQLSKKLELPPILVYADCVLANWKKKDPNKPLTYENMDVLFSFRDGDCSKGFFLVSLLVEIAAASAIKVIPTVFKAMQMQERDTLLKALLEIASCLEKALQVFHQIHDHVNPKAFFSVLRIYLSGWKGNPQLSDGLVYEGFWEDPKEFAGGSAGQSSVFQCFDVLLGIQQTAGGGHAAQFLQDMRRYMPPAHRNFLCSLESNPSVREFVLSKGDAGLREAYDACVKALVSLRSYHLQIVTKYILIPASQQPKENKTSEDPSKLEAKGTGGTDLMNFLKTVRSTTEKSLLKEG

IC50	Structure (SMILES)
0.127 µM	CCCN(Cc1ccccc1)c1cc(NC(=O)Cc2ccc(C)cc2)cc(-c2ccccc2-c2nnn[nH]2)n1 [Example 291]
1.37 µM	CCCN(Cc1ccccc1)c1cc(NC(=O)Cc2ccc(C)nc2)cc(-c2ccccc2-c2nnn[nH]2)n1 [Example 293]
0.774 µM	CCCN(Cc1ccccc1)c1cc(NC(=O)CC2CCC(C)CC2)cc(-c2ccccc2-c2nnn[nH]2)n1 (stereo not shown) [Example 294]
3.73 µM	CCCN(Cc1ccccc1)c1cc(NC(=O)CC2CCOCC2)cc(-c2ccccc2-c2nnn[nH]2)n1 [Example 295]
0.797 µM	CCCN(Cc1ccccc1)c1cc(NC(=O)Cc2cc(C)no2)cc(-c2ccccc2-c2nnn[nH]2)n1 [Example 296]
0.27 µM	CCCN(Cc1ccccc1)c1cc(NC(=O)Nc2cc(C)on2)cc(-c2ccccc2-c2nnn[nH]2)n1 [Example 297]
0.845 µM	CCCN(Cc1ccccc1)c1cc(NC(=O)Nc2cc(C)ccn2)cc(-c2ccccc2-c2nnn[nH]2)n1 [Example 299]
5.21 µM	CCCN(Cc1ccccc1)c1cc(NC(=O)NC2CCCCC2)cc(-c2ccccc2-c2nnn[nH]2)n1 [Example 300]
1.31 µM	CCCN(Cc1ccccc1)c1cc(NC(=O)C2CCCCC2)cc(-c2cc(C)ccc2-c2nnn[nH]2)n1 [Example 304, N-(2-(Benzyl(propyl)amino)-6-(5-methyl-2-(1H-tetrazol-5-yl)phenyl)pyridin-4-yl)cyclohexanecarboxamide]

Continued, molecule first:

Structure (SMILES)	IC50
CCCN(Cc1ccccc1)c1cc(NC(=O)Nc2ccc(C(F)(F)F)cc2)cc(-c2ccccc2-c2nnn[nH]2)n1 [Example 289, 1-(2-(2-(1H-Tetrazol-5-yl)phenyl)-6-(benzyl(propyl)amino)pyridin-4-yl)-3-(4-(trifluoromethyl)phenyl)urea]	0.0412 µM
CCCN(Cc1ccccc1)c1cc(NC(=O)Cc2ccc(C#N)cc2)cc(-c2ccccc2-c2nn[nH]n2)n1 [Example 290, N-(2-(2-(1H-Tetrazol-5-yl)phenyl)-6-(benzyl(propyl)amino)pyridin-4-yl)-2-(4-cyanophenyl)acetamide]	0.483 µM
CCCN(Cc1ccccc1)c1cc(NC(=O)Cc2cccnc2)cc(-c2ccccc2-c2nn[nH]n2)n1 [Example 292]	3.36 µM
CCCN(Cc1ccccc1)c1cc(NC(=O)N(C)c2ccc(C(F)(F)F)cc2)cc(-c2ccccc2-c2nnn[nH]2)n1 [Example 298]	0.0389 µM
CCCN(Cc1ccccc1)c1cc(NC(=O)Nc2ccc(C)cc2)cc(-c2cc(C)ccc2-c2nnn[nH]2)n1 [Example 301, 1-(2-(Benzyl(propyl)amino)-6-(5-methyl-2-(1H-tetrazol-5-yl)phenyl)pyridin-4-yl)-3-(p-tolyl)urea]	0.0461 µM
CCCN(Cc1ccccc1)c1cc(NC(=O)Nc2ccc(Cl)cc2Cl)cc(-c2cc(C)ccc2-c2nnn[nH]2)n1 [Example 302, 1-(2-(Benzyl(propyl)amino)-6-(5-methyl-2-(1H-tetrazol-5-yl)phenyl)pyridin-4-yl)-3-(2,4-dichlorophenyl)urea]	0.0055 µM
CCCN(Cc1ccccc1)c1cc(NC(=O)Cc2ccc(C)cc2)cc(-c2cc(C)ccc2-c2nnn[nH]2)n1 [Example 303, N-(2-(Benzyl(propyl)amino)-6-(5-methyl-2-(1H-tetrazol-5-yl)phenyl)pyridin-4-yl)-2-(p-tolyl)acetamide]	0.102 µM
